COc1cc(-c2cc(=O)c3c(O)cc(O)cc3o2)cc(OC)c1O
solubility (mole fraction)
Conditions	288.15 K	293.16 K	298.15 K	303.15 K	308.16 K	313.18 K	318.15 K
in ethanol	5.94e-06	8.85e-06	1.26e-05	1.72e-05	2.19e-05	3e-05	3.83e-05
in water	5e-10	1e-09	1.4e-09	2.1e-09	3.5e-09	5.6e-09	8.1e-09

Source: BigSolDB 2.1
